The values that follow come from PubChem BioAssay AID2769 (The Scripps Research Institute Molecular Screening Center, 2010).

For the experiment, the target named is VIM-2 metallo-beta-lactamase (Pseudomonas aeruginosa) (UniProt Q9K2N0). Briefly: VIM-2 metallo-beta-lactamase inhibitor potency, late-stage follow-up, biochemical, epi-absorbance, dose response (AID 2769). Particulars: purified VIM-2, nitrocefin absorbance hydrolysis.

`CC(=O)Nc1cc[c]([Hg+])cc1`: the 50% inhibitory concentration (IC50) is 2580 nM.

For `O=C(O)c1ccc[c]([Hg+])c1`, the concentration for half-maximal inhibition (IC50) was 817 nM.

`[Hg+][c]1ccccc1`: the IC50 was 1000 nM.

Consider `Cc1cc[c]([Hg+])cc1`, for which the IC50 is 814 nM.

As to `O=C(O)c1cc[c]([Hg][Cl])cc1`, the IC50 was 2590 nM.
